The subject of the first data set is emulsion-induced hyperlipidemic rats. Put plainly: Test 1: antihyperlipidemic activity in emulsion-induced hyperlipidemic rats (serum Chol, HDL-Chol, liver weight). In kind it is in vivo, male S.D. rats. Particulars: Rattus norvegicus, po, 72 h, 300 mg/kg/day via stomach tube, 3 days, vs control, read-out: Increase rate of serum HDL-Chol. On the procedure:
The antihyperlipidemic activity in emulsion-induced hyperlipidemic rats:
Male S.D. rats weighing 80-90 g (4 weeks old) were used. They were divided into groups of 5 to 6 rats each. The test compounds suspended in 0.5% CMC-Na(carboxymethyl cellulose sodium salt) were given to the rats in a daily dose of 4 ml/kg (i.e. 300 mg/kg of the test compounds) via stomach tube every 10:00 a.m. After 30 min., lipids emulsion having the following composition was orally given to the rats in an amount of 2.5 ml per rat.
Cholic acid sodium salt 10.0 g
During the experimental period of 3 days, the rats were fed on a standard commercial diet and water ad libitum. […] The total cholesterol and HDL cholesterol were measured.
The weight of the liver was measured. To the control group, only the aqueous CMC-Na solution and the lipids emulsion were given.
The fractionation of lipoproteins was conducted by a dextran sulfate-MgCl2 precipitation method.
Cholesterol in serum was measured by means of a cholesterol measuring kit (Cholesterol C-Test Wako, manufactured by Wako Junyaku Co., Ltd.), and cholesterol in HDL was measured by means of NC Hi-Set, manufactured by Nippon Chemiphar Co., Ltd.
Further, the reduction rate of Chol was calculated by the following equation. [formula] where A is the amount of serum Chol (mg/dl) of the control group, and B is the amount of serum Chol (mg/dl) of the group to which the therapeutic agent was administered.
Likewise, the increase rate of HDL-Chol was calculated by the following equation. [formula] where C is the amount of serum HDL-Chol (mg/dl) of the control group, and D is the amount of serum HDL-Chol (mg/dl) of the group to which the therapeutic agent was administered.
The degree of hepatomegaly (i.e. the change rate of the liver weight) was calculated by the following equation. [formula] where E is the liver weight (g) per 100 g of the body weight of the control group, and F is the liver weight (g) per 100 g of the body weight of the group to which the therapeutic agent was administered.
Take `CCCCCCCCCCCCCCCCOc1c2ncnc(SCc3ccccc3)c2nn1C` [Example 19, 2-Methyl-3-n-hexadecyloxy-7-benzylthio-pyrazolo[4,3-d]pyrimidine]: the change in vivo at 300 mg/kg was determined as 31%. For `CCCCCCCCCCCCCCCOc1c2ncnc(SCC(=O)OCC)c2nn1C` [Example 4, 2-Methyl-3-n-pentadecyloxy-7-ethoxycarbonylmethylthio-pyrazolo[4,3-d]pyrimidine], the change in vivo at 300 mg/kg is 20%. In the case of `CCCCCCCCCCCCCCCCCOc1c2ncnc(SCC(=O)OCC)c2nn1C` [Example 5], the change in vivo at 300 mg/kg was found to be 38%.

The same data set, now with this note: Rattus norvegicus, po, 72 h, 300 mg/kg/day via stomach tube, 3 days, vs control, read-out: Reduction rate of serum Chol.
In the case of `C=CCCCCCCCCOc1c2ncnc(SCC(=O)OCC)c2nn1-c1ccccc1` [Example 51, 2-Phenyl-3-(9-decenyloxy)-7-ethoxycarbonylmethylthio-pyrazolo[4,3-d]pyrimidine], the inhibition in vivo at 300 mg/kg was determined as 58%. Take `CCCCCCCCCCCCCCCCOc1c2ncnc(SCCCCCCCCCCCCCCCC)c2nn1C` [Example 24, 2-Methyl-3-n-hexadecyloxy-7-n-hexadecylthio-pyrazolo[4,3-d]pyrimidine]: the inhibition in vivo at 300 mg/kg is 41%. As to `CCCCC/C=C\C/C=C\CCCCCCCCOc1c2ncnc(SC(C)C(=O)OCC)c2nn1C` (stereo not drawn) [Example 58, 2-Methyl-3-linoleyloxy-7-(1-ethoxycarbonylethylthio)-pyrazolo[4,3-d]pyrimidine], the inhibition in vivo at 300 mg/kg was found to be 32%. `CCOC(=O)CSc1ncnc2c(OCCOCc3ccc(C(C)(C)C)cc3)n(C)nc12` [Example 38, 2-Methyl-3-[2-(4-t-butylbenzyloxy)ethoxy]-7-ethoxycarbonylmethylthio-pyrazolo[4,3-d]pyrimidine]: the inhibition in vivo at 300 mg/kg stood at 15%. Regarding `CCCCCCCCCCCCOc1c2ncnc(SCC(=O)OCC)c2nn1C` [Example 2, 2-Methyl-3-n-dodecyloxy-7-ethoxycarbonylmethylthio-pyrazolo[4,3-d]pyrimidine], the inhibition in vivo at 300 mg/kg turned out to be 36%. Turning to `CCCCCCCCCCCCCCC(C)Oc1c2ncnc(SCC(=O)OCC)c2nn1C` (stereo not drawn) [Example 43, 2-Methyl-3-(1-methylpentadecyloxy)-7-ethoxycarbonylmethylthio-pyrazolo[4,3-d]pyrimidine], the inhibition in vivo at 300 mg/kg came out at 28%.

As to `CCCCC/C=C\C/C=C\CCCCCCCCOc1c2ncnc(SCCCCC(=O)OCC)c2nn1C` [Example 60, 2-Methyl-3-linoleyloxy-7-[4-(ethoxycarbonyl)butylthio]-pyrazolo[4,3-d]pyrimidine], the inhibition in vivo at 300 mg/kg amounted to 22%. In the case of `CCCCCCCCCCCCCCCCOc1c2ncnc(SCc3ccccc3)c2nn1C` [Example 19, 2-Methyl-3-n-hexadecyloxy-7-benzylthio-pyrazolo[4,3-d]pyrimidine], the inhibition in vivo at 300 mg/kg worked out at 42%. Turning to `C=CCCCCCCCCCOc1c2ncnc(SCC(=O)OCC)c2nn1C` [Example 73, 2-Methyl-3-(10-undecenyloxy)-7-ethoxycarbonylmethylthio-pyrazolo[4,3-d]pyrimidine], the inhibition in vivo at 300 mg/kg stood at 27%. On the same count and under the same terms, as for `CCOC(=O)CSc1ncnc2c(OCCC(C)CCCC(C)CCCC(C)C)n(C)nc12` (stereo not drawn) [Example 41, 2-Methyl-3-(3,7,11-trimethyl-dodecyloxy)-7-ethoxycarbonylmethylthio-pyrazolo[4,3-d]pyrimidine], the figure is 48%; as for `CCCCCCCCCCC/C=C\CCCCCOc1c2ncnc(SCC(=O)OCC)c2nn1C` [Example 71, 2-Methyl-3-petroselinyloxy-7-ethoxycarbonylmethylthio-pyrazolo[4,3-d]pyrimidine], 64%. For `CCCCCCCCCCCCCCCOc1c2ncnc(SCC(=O)OCC)c2nn1C` [Example 4, 2-Methyl-3-n-pentadecyloxy-7-ethoxycarbonylmethylthio-pyrazolo[4,3-d]pyrimidine], the inhibition in vivo at 300 mg/kg was determined as 48%.

For the compound `CCCCCCCCCCCCCCCCOc1c2ncnc(SCc3ccc(Cl)c(Cl)c3)c2nn1C` [Example 20, 2-Methyl-3-n-hexadecyloxy-7-(3,4-dichlorophenylmethylthio)-pyrazolo[4,3-d]pyrimidine], the inhibition in vivo at 300 mg/kg is 19%. On to `CCCCC/C=C\C/C=C\CCCCCCCCOc1c2ncnc(SCC#N)c2nn1C` [Example 57, 2-Methyl-3-linoleyloxy-7-cyanomethylthio-pyrazolo[4,3-d]pyrimidine], for which the inhibition in vivo at 300 mg/kg worked out at 61%. Take `CCCCCCCCCCCCCCCCOc1c2ncnc(SC3C(=O)OCC3C)c2nn1C` (stereo not drawn) [Example 25, 2-Methyl-3-n-hexadecyloxy-7-[4-(3-methyl-5-oxotetrahydrofuranyl)thio]-pyrazolo[4,3-d]pyrimidine]: the inhibition in vivo at 300 mg/kg was 11%.

With `CCCCC/C=C\C/C=C\CCCCCCCCOc1c2ncnc(SC(C(=O)OCC)C(C)C)c2nn1C` (stereo not drawn) [Example 63, 2-Methyl-3-linoleyloxy-7-(1-ethoxycarbonyl-2-methylpropylthio)pyrazolo[4,3-d]pyrimidine], the inhibition in vivo at 300 mg/kg is 39%. Take `C=CCSc1ncnc2c(OCCCCCCCCCCCCCCCC)n(C)nc12` [Example 22]: the inhibition in vivo at 300 mg/kg was 11%.

As for `CCCCC/C=C\C/C=C\CCCCCCCCOc1c2ncnc(SCCCCCC)c2nn1C` [Example 55, 2-Methyl-3-linoleyloxy-7-n-hexylthio-pyrazolo[4,3-d]pyrimidine], the inhibition in vivo at 300 mg/kg came out at 58%. Regarding `CCCCCCCCCCCCCCCCCOc1c2ncnc(SCC(=O)OCC)c2nn1C` [Example 5], the inhibition in vivo at 300 mg/kg was 21%. Take `CCOC(=O)CSc1ncnc2c(OCCC(C)CCCC(C)CCCC(C)CCCC(C)C)n(C)nc12` (stereo not drawn) [Example 40, 2-Methyl-3-(3,7,11,15-tetramethylhexadecyloxy)-7-ethoxycarbonylmethylthio-pyrazolo[4,3-d]pyrimidine]: the inhibition in vivo at 300 mg/kg is 50%. Take `CCOC(=O)CSc1ncnc2c(OCCOCc3ccccc3)n(C)nc12` [Example 36, 2-Methyl-3-(2-benzyloxyethoxy)-7-ethoxycarbonylmethylthio-pyrazolo[4,3-d]pyrimidine]: the inhibition in vivo at 300 mg/kg was 44%. `CCC=CCCOc1c2ncnc(SCC(=O)OCC)c2nn1-c1ccccc1` [Example 47, 2-Phenyl-3-(3-hexenyloxy)-7-ethoxycarbonylmethylthio-pyrazolo[4,3-d]pyrimidine]: the inhibition in vivo at 300 mg/kg came to 10%.

Take `CCOC(=O)CSc1ncnc2c(OC3CCC(C)CC3)n(C)nc12` (stereo not drawn) [Example 35, 2-Methyl-3-(4-methylcyclohexyloxy)-7-ethoxycarbonylmethylthio-pyrazolo[4,3-d]pyrimidine]: the inhibition in vivo at 300 mg/kg turned out to be 13%.

`CCCCCCCCCCCCCCCCCCCCOc1c2ncnc(SCC(=O)OCC)c2nn1C` [Example 8, 2-Methyl-3-n-eicosanyloxy-7-ethoxycarbonylmethylthio-pyrazolo[4,3-d]pyrimidine]: the inhibition in vivo at 300 mg/kg turned out to be 37%. In the case of `CCCCC/C=C\C/C=C\CCCCCCCCOc1c2ncnc(SCc3ccccc3)c2nn1C` [Example 62, 2-Methyl-linoleyloxy-7-benzylthio-pyrazolo[4,3-d]pyrimidine], the inhibition in vivo at 300 mg/kg was 17%. On to `CCOC(=O)C(C)(C)Sc1ncnc2c(OCCO)n(C)nc12` [Example 30, 2-Methyl-3-(2-hydroxyethyloxy)-7-(1-ethoxycarbonyl-1-methyl-ethylthio) pyrazolo[4,3-d]pyrimidine], for which the inhibition in vivo at 300 mg/kg was found to be 28%. Same read-out and setting: as for `CCCCCCCCCCCCCCCCOc1c2ncnc(SCCc3ccccc3)c2nn1C` [Example 21, 2-Methyl-3-n-hexadecyloxy-7-phenethylthio-pyrazolo[d]pyrimidine], the figure is 10%; as for `CCCCC/C=C\C/C=C\CCCCCCCCOc1c2ncnc(SCC(=O)OCCCC)c2nn1C` [Example 56, 2-Methyl-3-linoleyloxy-7-n-butoxycarbonylmethylthio-pyrazolo[4,3-d]pyrimidine], 60%. On to `CCCCCCCCCCCCOc1c2ncnc(SC(C)(C)C(=O)OCC)c2nn1-c1ccccc1` [Example 32, 2-Phenyl-3-n-dodecyloxy-7-(1-ethoxycarbonyl-1-methylethylthio)-pyrazolo[4,3-d]pyrimidine], for which the inhibition in vivo at 300 mg/kg stood at 50%. Still for that read-out and setting: as for `CCCCCCCCCCCCCCCCCCCCOc1c2ncnc(SC(C)(C)C(=O)OCC)c2nn1C` [Example 29, 2-Methyl-3-n-eicosyloxy-7-(1-ethoxycarbonyl-1-methyl-ethylthio)-pyrazolo[4,3-d]pyrimidine], the figure is 16%; as for `CCCCCC/C=C/CCCCCCCCCCOc1c2ncnc(SCC(=O)OCC)c2nn1C` [Example 72, 2-Methyl-3-vaccenyloxy-7-ethoxycarbonylmethylthio-pyrazolo[4,3-d]pyrimidine], 58%. For the compound `CCCC=CCCOc1c2ncnc(SCC(=O)OCC)c2nn1-c1ccccc1` [Example 53, 2-Phenyl-3-(3-heptenyloxy)-7-ethoxycarbonylmethylthio-pyrazolo[4,3-d]pyrimidine], the inhibition in vivo at 300 mg/kg was 11%. Still for that read-out and setting: the figure for `CCCCC/C=C\C/C=C\CCCCCCCCOc1c2ncnc(SCCCC(=O)OCC)c2nn1C` [Example 59, 2-Methyl-3-linoleyloxy-7-[3-(ethoxycarbonyl)propylthio]-pyrazolo[4,3-d]pyrimidine] is 68%.

Staying with this data set, now noted: liver weight per 100 g body weight, 300 mg/kg/day, 3 days, vs control.
For `CCCCCCCCCCCCCCCCOc1c2ncnc(SCc3ccccc3)c2nn1C` [Example 19, 2-Methyl-3-n-hexadecyloxy-7-benzylthio-pyrazolo[4,3-d]pyrimidine], the “Degree of hepatomegaly (change rate of the liver weight)” value is listed as “+8%”. As for `CCCCCCCCCCCCCCCOc1c2ncnc(SCC(=O)OCC)c2nn1C` [Example 4, 2-Methyl-3-n-pentadecyloxy-7-ethoxycarbonylmethylthio-pyrazolo[4,3-d]pyrimidine], the “Degree of hepatomegaly (change rate of the liver weight)” value was “+2%”. On the same count and under the same terms, the entry for `CCCCCCCCCCCCCCCCCOc1c2ncnc(SCC(=O)OCC)c2nn1C` [Example 5] is “+3%”.
